In PubChem BioAssay AID1963848 (Molecular Pharmacology Branch, DTP, NCI, 2024):

Tested on: 379773-124-R-J2-PDC spheroid viability
Test: Anticancer human tumor 379773-124-R-J2-PDC patient-derived endometrial carcinoma cell line growth inhibition [POLQ]
Conditions: spheroids with HUVEC and MSC; for IC50: curve of first compound; for viability, T/C: stronger effect = lower value
Description: Multicellular complex tumor spheroid response to Polymerase (POL) inhibitors (novobiocin, ART-558, RP6685) in combination with a variety of drugs and investigational agents in selected tumor cell lines
The POL inhibitors (novobiocin, ART-558, and RP6685) were evaluated both individually and in combination with standard of care and investigational anticancer small molecules within a complex spheroid model of solid tumors. . Complex spheroids include a stromal component modeled by human endothelial cells (HUVEC) and fibroblasts modeled by human mesenchymal stem cells (MSCs). The concentration ranges selected for each drug and investigational agent were based upon clinically achievable concentrations if the clinical Cmax of the agent was known.
Compounds. The drugs and investigational agents: novobiocin (NSC847541), ART-558 (NSC835418), RP-6685 (NSC848927), peposertib (NSC802822), ceralasertib (NSC780249), elimusertib (NSC800525), camonsertib (NSC841442), AZD-1390 (NSC803789), olaparib (NSC753686), talazoparib (NSC767125), rucaparib (NSC756644), sotorasib (NSC818433), MRTX-1133 (NSC836407), SN-38 (NSC673596), topotecan (NSC609699), epotoside (NSC141540), doxorubicin (NSC123127), gemcitabine (NSC613327), 5-fluorouracil (NSC19893), paclitaxel (NSC125973), vemurafenib (NSC761431), MSA-2 (NSC828583), SN-011 (NSC837082), adavosertib (NSC754352), prexasertib (NSC758257), carboplatin (NSC241240) and oxaliplatin (NSC266046), were obtained from the National Cancer Institute (NCI) Developmental Therapeutics Program Chemical Repository (21). The FDA-approved anticancer drug set is available from the Developmental Therapeutics Program at https://dtp.cancer.gov/organization/dscb/obtaining/. […] The stock solutions were prepared in dimethyl sulfoxide (DMSO, Sigma-Aldrich, St. Louis, MO, cat. D2650), except for the platinum compounds which were prepared in saline (Quality Biological, Gaithersburg, MD, cat. 114-055-101), at 800-fold the tested concentration and stored at -70 degrees C prior to their use. All drugs and investigational agents were tested over a range starting from a high concentration at or near the clinical Cmax and decreasing in half-log increments. If the clinical Cmax for an agent had not been determined, the highest concentration tested was 10 microM, except for SN-38, which was tested at a high concentration of 1 microM.
Cell Culture. All cells were maintained in an incubator at 37 degrees C and 5% CO2 with 95% humidity. The PDC lines were cultured according to standard operating procedures established by the NCI PDMR (https://pdmr.cancer.gov). Table 3 of the manuscript, lists the cell lines along with the number of the three cell types plated to form the mct-spheroids and media for tumor cell growth. After thawing, all PDC lines, except 997537-175-T-J1-PDC and 415267-285-R-J2-PDC, were cultured in Matrigel-coated flasks prepared with a working solution of 1X Ham's F-12 nutrient mix, without supplementation (Thermo Fisher Scientific, cat. 11765054), 100 U/mL penicillin-streptomycin (Thermo Fisher Scientific, cat. 15140122), and 2.5% Matrigel (Corning Inc., Corning, NY, cat. 354248) for the first three passages. The two PDC lines 997537-175-T-J1-PDC and 415267-285-R-J2-PDC were cultured on uncoated flasks. The 857933-349-R-J2-PDC line was cultured in 6C/Colon 1B media containing advanced DMEM/F-12 (Thermo Fisher Scientific, cat. 12634028), 10 mM HEPES (Thermo Fisher Scientific, cat. 15630080), 1X GlutaMAX supplement (Thermo Fisher Scientific, cat. 35050061), 0.1 mg/mL primocin (InvivoGen, San Diego, CA, cat. ant-pm-2), 10% defined fetal bovine serum, heat inactivated (HyClone Laboratories Inc., Logan, UT, cat. SH30070.03HI), 50% L-WRN conditioned media (ATCC, cat. CRL-3276), 1.25 mM N-Acetyl-L-cysteine (Sigma-Aldrich, cat. A9165), 10 mM nicotinamide (Sigma-Aldrich, cat. N0636), 1X B-27 supplement (Thermo Fisher Scientific, cat. 17504044), 1X N-2 supplement (Thermo Fisher Scientific, cat. […]

[1] = second compound 0.0316 µM, first compound 0.0316 µM
[2] = second compound 0.0316 µM, first compound 0.1 µM
[3] = second compound 0.0316 µM, first compound 0.316 µM
[4] = second compound 0.0316 µM, first compound 1 µM
[5] = second compound 0.0316 µM, first compound 3.16 µM
[6] = second compound 0.0316 µM, first compound 10 µM
[7] = second compound 0.1 µM, first compound 0.0316 µM
[8] = second compound 0.1 µM, first compound 0.1 µM
[9] = second compound 0.1 µM, first compound 0.316 µM
[10] = second compound 0.1 µM, first compound 1 µM
[11] = second compound 0.1 µM, first compound 3.16 µM
[12] = second compound 0.1 µM, first compound 10 µM
[13] = second compound 0.316 µM, first compound 0.0316 µM
[14] = second compound 0.316 µM, first compound 0.1 µM
[15] = second compound 0.316 µM, first compound 0.316 µM
[16] = second compound 0.316 µM, first compound 1 µM
[17] = second compound 0.316 µM, first compound 3.16 µM
[18] = second compound 0.316 µM, first compound 10 µM
[19] = second compound 1 µM, first compound 0.0316 µM
[20] = second compound 1 µM, first compound 0.1 µM
[21] = second compound 1 µM, first compound 0.316 µM
[22] = second compound 1 µM, first compound 1 µM
[23] = second compound 1 µM, first compound 3.16 µM
[24] = second compound 1 µM, first compound 10 µM
[25] = second compound 3.16 µM, first compound 0.0316 µM
[26] = second compound 3.16 µM, first compound 0.1 µM
[27] = second compound 3.16 µM, first compound 0.316 µM
[28] = second compound 3.16 µM, first compound 1 µM
[29] = second compound 3.16 µM, first compound 3.16 µM
[30] = second compound 3.16 µM, first compound 10 µM
[31] = second compound 10 µM, first compound 0.0316 µM
[32] = second compound 10 µM, first compound 0.1 µM
[33] = second compound 10 µM, first compound 0.316 µM
[34] = second compound 10 µM, first compound 1 µM
[35] = second compound 10 µM, first compound 3.16 µM
[36] = second compound 10 µM, first compound 10 µM
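Note: spheroids exposed to drugs for seven days before readout.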
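Throughout, for viability, T/C: percent viability relative to DMSO vehicle control taken as 100%.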

In the case of COc1cc(C2c3cc4c(cc3C(OC3OC5COC(C)OC5C(O)C3O)C3COC(=O)C23)OCO4)cc(OC)c1O (centres undefined) + COC1C(OC(N)=O)C(O)C(Oc2ccc3c(O)c(NC(=O)c4ccc(O)c(CC=C(C)C)c4)c(=O)oc3c2C)OC1(C)C, the IC50 (second compound 0.0316 µM) is reported as 1190 nM, the IC50 (second compound 0.1 µM) is reported as 1510 nM and the IC50 (second compound 0.316 µM) is reported as 1490 nM. The IC50 (second compound 1 µM) was 1370 nM, the IC50 (second compound 3.16 µM) was 1370 nM and the IC50 (second compound 10 µM) was 1190 nM. It also gave a viability, T/C [1] of 97.5%, a viability, T/C [2] of 82.6% and a viability, T/C [3] of 86.2%. The viability, T/C [4] was 56.9%, the viability, T/C [5] was 13.8% and the viability, T/C [6] was 9.47%. For the same compound, the viability, T/C [7] was 95.5%, the viability, T/C [8] was 80.6% and the viability, T/C [9] was 80%. It also gave a viability, T/C [10] of 70.5%, a viability, T/C [11] of 13% and a viability, T/C [12] of 10.2%. The viability, T/C [13] was 95.8%, the viability, T/C [14] was 80.9% and the viability, T/C [15] was 81.3%. It also gave a viability, T/C [16] of 70.5%, a viability, T/C [17] of 11.1% and a viability, T/C [18] of 9.75%. For the same compound, the viability, T/C [19] was 93.1%, the viability, T/C [20] was 94.6% and the viability, T/C [21] was 81.6%. It also gave a viability, T/C [22] of 64.8%, a viability, T/C [23] of 12.2% and a viability, T/C [24] of 9.19%. It also gave a viability, T/C [25] of 76.1%, a viability, T/C [26] of 84.7% and a viability, T/C [27] of 83%. It also gave a viability, T/C [28] of 64%, a viability, T/C [29] of 12.9% and a viability, T/C [30] of 8.54%. For the same compound, the viability, T/C [31] was 85.2%, the viability, T/C [32] was 84.4% and the viability, T/C [33] was 89.3%. The viability, T/C [34] was 56.3%, the viability, T/C [35] was 14.1% and the viability, T/C [36] was 9.29%.
In the case of O=C(Nc1ccc(O)c(NS(=O)(=O)c2ccc(F)cc2)c1)c1ccc(-c2ccccc2)cc1 + Nc1ccc(C#CCN(C(=O)Cc2ncc(C(F)(F)F)cc2C(F)(F)F)c2ccc(F)cc2)nn1, the IC50 (second compound 0.0316 µM) is reported as greater than 10000 nM, the IC50 (second compound 0.1 µM) is reported as greater than 10000 nM and the IC50 (second compound 0.316 µM) is reported as greater than 10000 nM. It also gave an IC50 (second compound 1 µM) greater than 10000 nM, an IC50 (second compound 3.16 µM) greater than 10000 nM and an IC50 (second compound 10 µM) greater than 10000 nM. The viability, T/C [1] was 85%, the viability, T/C [2] was 92.1% and the viability, T/C [3] was 85.8%. The viability, T/C [4] was 91.5%, the viability, T/C [5] was 89.8% and the viability, T/C [6] was 77.5%. For the same compound, the viability, T/C [7] was 89.8%, the viability, T/C [8] was 81.8% and the viability, T/C [9] was 90.8%. For the same compound, the viability, T/C [10] was 82.6%, the viability, T/C [11] was 89% and the viability, T/C [12] was 79.3%. For the same compound, the viability, T/C [13] was 91.9%, the viability, T/C [14] was 90.4% and the viability, T/C [15] was 84.1%. The viability, T/C [16] was 88.7%, the viability, T/C [17] was 92.2% and the viability, T/C [18] was 79.6%. For the same compound, the viability, T/C [19] was 96.6%, the viability, T/C [20] was 96.4% and the viability, T/C [21] was 89.1%. For the same compound, the viability, T/C [22] was 83.2%, the viability, T/C [23] was 93.8% and the viability, T/C [24] was 81%. The viability, T/C [25] was 94.4%, the viability, T/C [26] was 86.3% and the viability, T/C [27] was 88.8%. For the same compound, the viability, T/C [28] was 86.2%, the viability, T/C [29] was 86.7% and the viability, T/C [30] was 79.4%. The viability, T/C [31] was 94.2%, the viability, T/C [32] was 87.6% and the viability, T/C [33] was 87%. For the same compound, the viability, T/C [34] was 85.2%, the viability, T/C [35] was 86.5% and the viability, T/C [36] was 71.9%.
